Measurements from ChEMBL document CHEMBL1201862, “PubChem BioAssay data set” (2004).
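Assay format: 96-well plates, 48-hour exposure. GI50: concentration for 50% inhibition of growth.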 Active and inactive are the calls of the source. Rule as the data show it: active = GI50 up to about 1.1 µM and inactive = higher.

Columns and labels:
Assay in all cases: growth of human tumour cells (NCI), 48 h
[1] = tested on: 786-0
[2] = tested on: A498
[3] = tested on: CCRF-CEM
[4] = tested on: EKVX
[5] = tested on: HCT-15
[6] = tested on: HOP-92
[7] = tested on: HT-29
[8] = tested on: IGROV-1
[9] = tested on: LOX IMVI
[10] = tested on: MCF7
[11] = tested on: NCI-H23
[12] = tested on: OVCAR-8
[13] = tested on: PC-3
[14] = tested on: RPMI-8226
[15] = tested on: RXF 393
[16] = tested on: SF-268
[17] = tested on: SNB-75
[18] = tested on: SR
[19] = tested on: T47D
[20] = tested on: TK-10

SMILES | GI50 [1] | GI50 [2] | GI50 [3] | GI50 [4] | GI50 [5] [µM] | GI50 [6] | GI50 [7] | GI50 [8] | GI50 [9] | GI50 [10] | GI50 [11] | GI50 [12] | GI50 [13] | GI50 [14] | GI50 [15] | GI50 [16] | GI50 [17] | GI50 [18] | GI50 [19] | GI50 [20]
COc1ccccc1Cn1c2c(c3c(C(=O)NCCN(C)C)c(O)ccc31)C(=O)c1ccccc1C2=O | 0.409 µM (active) | 5.26 µM (inactive) | 0.298 µM (active) | 1.82 µM (inactive) | 1.94 | 1.17 µM (inactive) | 1.92 µM (inactive) | 1.68 µM (inactive) | 1.89 µM (inactive) | 1.47 µM (inactive) | 1.83 µM (inactive) | 2.14 µM (inactive) | 2.09 µM (inactive) | 0.78 µM (active) | 1.07 µM (active) | 1.68 µM (inactive) | 1.55 µM (inactive) | 0.291 µM (active) | 2.16 µM (inactive) | 1.61 µM (inactive)
COC(OC)[C@@H]1OC[C@@H](O)[C@@H]1n1cnc2c(N)ncnc21 | > 100 µM (inactive) | > 100 µM (inactive) | > 100 µM (inactive) | > 100 µM (inactive) | > 100 | > 100 µM (inactive) | > 100 µM (inactive) | > 100 µM (inactive) | > 100 µM (inactive) | > 100 µM (inactive) | > 100 µM (inactive) | – | > 100 µM (inactive) | > 100 µM (inactive) | > 100 µM (inactive) | > 100 µM (inactive) | > 100 µM (inactive) | > 100 µM (inactive) | > 100 µM (inactive) | > 100 µM (inactive)
COC(=O)c1c2n(c3ccccc13)C[C@H]1OC(C)(C)O[C@@H]21 | > 100 µM (inactive) | > 100 µM (inactive) | > 100 µM (inactive) | > 100 µM (inactive) | > 100 | > 100 µM (inactive) | > 100 µM (inactive) | > 100 µM (inactive) | > 100 µM (inactive) | > 100 µM (inactive) | > 100 µM (inactive) | > 100 µM (inactive) | > 100 µM (inactive) | > 100 µM (inactive) | > 100 µM (inactive) | > 100 µM (inactive) | > 100 µM (inactive) | > 100 µM (inactive) | > 100 µM (inactive) | > 100 µM (inactive)
N/C(=N\O)NCCN1CCCCCCC1 | > 100 µM (inactive) | > 100 µM (inactive) | > 100 µM (inactive) | > 100 µM (inactive) | > 100 | > 100 µM (inactive) | > 100 µM (inactive) | 26.7 µM (inactive) | > 100 µM (inactive) | 26.5 µM (inactive) | > 100 µM (inactive) | 42 µM (inactive) | 28.4 µM (inactive) | > 100 µM (inactive) | > 100 µM (inactive) | > 100 µM (inactive) | > 100 µM (inactive) | > 100 µM (inactive) | 80.9 µM (inactive) | > 100 µM (inactive)
C[C@]12C=CC(=O)C=C1CC[C@@H]1[C@@H]2C(=O)C[C@@]2(C)[C@H]1CC[C@]2(O)C(=O)CO [PREDNISONE] | > 100 µM (inactive) | > 100 µM (inactive) | > 100 µM (inactive) | > 100 µM (inactive) | > 100 | > 100 µM (inactive) | > 100 µM (inactive) | > 100 µM (inactive) | > 100 µM (inactive) | > 100 µM (inactive) | > 100 µM (inactive) | > 100 µM (inactive) | > 100 µM (inactive) | > 100 µM (inactive) | > 100 µM (inactive) | > 100 µM (inactive) | > 100 µM (inactive) | > 100 µM (inactive) | > 100 µM (inactive) | > 100 µM (inactive)
CC1=C(C#N)C(=O)N(/N=C/c2ccc(Cl)cc2)C(=O)/C1=c1\o/c(=C2/C(=O)N(/N=C/c3ccc(Cl)cc3)C(=O)C(C#N)=C2C)c2nccnc12 | > 100 µM (inactive) | > 100 µM (inactive) | 70.3 µM (inactive) | > 100 µM (inactive) | 82 | > 100 µM (inactive) | > 100 µM (inactive) | > 100 µM (inactive) | > 100 µM (inactive) | 70.5 µM (inactive) | > 100 µM (inactive) | > 100 µM (inactive) | 60.7 µM (inactive) | 60.7 µM (inactive) | 19.5 µM (inactive) | 47.3 µM (inactive) | 15.3 µM (inactive) | 80.5 µM (inactive) | > 100 µM (inactive) | –
CCOC(=O)C(CC(C)C)NC(=O)CSc1nnc(COc2ccc(Cl)cc2)n1-c1ccccc1 (configuration not stated) | 15.3 µM (inactive) | 12.7 µM (inactive) | 5.08 µM (inactive) | – | 18.5 | 18.6 µM (inactive) | 18.5 µM (inactive) | 15.4 µM (inactive) | 14.9 µM (inactive) | 18.5 µM (inactive) | 16 µM (inactive) | – | 17.1 µM (inactive) | 16.4 µM (inactive) | 16.6 µM (inactive) | 18.2 µM (inactive) | 16.5 µM (inactive) | 2.3 µM (inactive) | 14.4 µM (inactive) | 17.9 µM (inactive)
Cc1cc(C)n(C(=O)CSc2nnc(SCC(=O)n3nc(C)cc3C)s2)n1 | > 100 µM (inactive) | > 100 µM (inactive) | > 100 µM (inactive) | 25.5 µM (inactive) | > 100 | > 100 µM (inactive) | – | – | > 100 µM (inactive) | > 100 µM (inactive) | > 100 µM (inactive) | > 100 µM (inactive) | > 100 µM (inactive) | > 100 µM (inactive) | > 100 µM (inactive) | > 100 µM (inactive) | 40 µM (inactive) | > 100 µM (inactive) | > 100 µM (inactive) | > 100 µM (inactive)
CC(=O)OCCCCn1cnc2nc(Nc3ccccc3)nc(Cl)c21 | > 100 µM (inactive) | 73.1 µM (inactive) | 78.2 µM (inactive) | > 100 µM (inactive) | 73.1 | 51.4 µM (inactive) | 91.6 µM (inactive) | > 100 µM (inactive) | 67.5 µM (inactive) | > 100 µM (inactive) | – | > 100 µM (inactive) | 42.5 µM (inactive) | > 100 µM (inactive) | 68.7 µM (inactive) | > 100 µM (inactive) | 50.7 µM (inactive) | > 100 µM (inactive) | 56.9 µM (inactive) | > 100 µM (inactive)
CNc1cccc(-c2cc(O)c3cc4c(cc3n2)OCO4)c1 | 0.334 µM (active) | 0.307 µM (active) | 0.236 µM (active) | – | 0.272 | 0.533 µM (active) | 0.3 µM (active) | 0.437 µM (active) | 0.372 µM (active) | 0.293 µM (active) | 0.436 µM (active) | 0.409 µM (active) | 0.254 µM (active) | 0.358 µM (active) | 0.213 µM (active) | 1.05 µM (active) | 1.8 µM (inactive) | 0.0407 µM (active) | 52 µM (inactive) | 1.42 µM (inactive)
